The text below walks through data of US20220274938A1, “5-[(1S)-1-(4-BROMOPHENOXY)ETHYL]-2H-TETRAZOLE DERIVATIVES AND RELATED COMPOUNDS AS CLC-1 ION CHANNEL INHIBITORS FOR TREATING NEUROMUSCULAR DISORDERS” (NMD PHARMA A/S, priority 2019, published 2022).

Assay type in all cases: cell-based
The target of one experiment is T1, CIC-1 ion channel (Rattus norvegicus, UniProt P35524).
T1 construct: CIC-1 channels in native tissue of rat skeletal muscle fibres; from tissue; host or cells: whole soleus muscle of 12-14 week old Wistar rats
T1 sequence (P35524 1-994): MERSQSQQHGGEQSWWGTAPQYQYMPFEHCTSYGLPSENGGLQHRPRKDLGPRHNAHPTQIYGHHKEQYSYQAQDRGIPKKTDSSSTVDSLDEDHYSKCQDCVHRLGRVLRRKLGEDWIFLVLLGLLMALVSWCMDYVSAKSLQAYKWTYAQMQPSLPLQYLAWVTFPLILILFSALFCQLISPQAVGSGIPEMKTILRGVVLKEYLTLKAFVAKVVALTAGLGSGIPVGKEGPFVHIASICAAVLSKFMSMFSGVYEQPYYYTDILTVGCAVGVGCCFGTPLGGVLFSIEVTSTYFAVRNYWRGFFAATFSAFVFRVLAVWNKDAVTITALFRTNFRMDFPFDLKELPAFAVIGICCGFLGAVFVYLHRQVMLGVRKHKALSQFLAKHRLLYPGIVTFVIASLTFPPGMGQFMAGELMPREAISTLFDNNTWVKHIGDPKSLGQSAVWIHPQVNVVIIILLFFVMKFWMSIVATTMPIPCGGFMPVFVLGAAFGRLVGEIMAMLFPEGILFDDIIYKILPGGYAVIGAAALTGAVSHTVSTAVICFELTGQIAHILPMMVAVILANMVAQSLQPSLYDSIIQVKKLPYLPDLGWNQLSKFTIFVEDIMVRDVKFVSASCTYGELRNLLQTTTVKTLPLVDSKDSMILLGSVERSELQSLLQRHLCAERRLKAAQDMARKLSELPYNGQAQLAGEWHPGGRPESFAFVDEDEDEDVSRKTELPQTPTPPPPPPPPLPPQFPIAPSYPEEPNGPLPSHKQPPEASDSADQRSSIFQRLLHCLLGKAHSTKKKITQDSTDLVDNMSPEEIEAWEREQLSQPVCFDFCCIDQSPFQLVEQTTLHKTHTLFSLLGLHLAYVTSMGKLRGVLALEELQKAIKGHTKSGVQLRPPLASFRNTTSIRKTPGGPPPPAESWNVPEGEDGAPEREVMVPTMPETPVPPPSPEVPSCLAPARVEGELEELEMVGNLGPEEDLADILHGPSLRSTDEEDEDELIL
As to the kind of experiment: Electrophysiological measurement (Gm, three micro-electrodes) of compound inhibition of CIC-1 in rat soleus muscle fibres. The conditions noted are these: approx. 30° C., four increasing compound concentrations, read-out: EC50 (inhibition of CIC-1 ion channel, reduction of Gm). An excerpt: FIG. 1. […] Please note that the drawing illustrates only the impaled fibre although it is part of an intact muscle that contains many such fibres. All electrodes recorded the membrane potential of the fibre and the two peripheral electrodes were used to inject current (−30 nA, 50 ms). The electrodes were inserted with known inter-electrode distances (X1, X2 and X3). After insertion, current was passed first via the V1 electrode and then via the V3 electrode. The resulting deflections in the membrane voltage were measured by the other electrodes. The steady state deflections in membrane potential were measured and divided by the magnitude of the injected current (−30 nA) to obtain transfer resistances. These were next plotted against inter-electrode distances, and fitted to an exponential function (Panel B), from which Gm could be calculated using linear cable theory. The approach described in panel A and B, was repeated for several muscle fibres in the muscle during exposure at increasing concentrations of compound E-8, with approx. 10 fibres at each concentration. Average Gm at each concentration was plotted as a function of compound concentration in panel C, and fitted to a 4-parameter sigmoidal function from which the EC50 value for the compound was obtained (dashed line)
Apparent CIC-1 affinity was reported by the concentration of compound at which 50% of the compound's full inhibition of CIC-1 was observed (EC50).
CIC-1 Cl^− ion channels generate around 80% of the total membrane conductance (Gm) in resting skeletal muscle fibres of most animals including rat and human (Bretag, A H. Muscle chloride channels. Physiological Reviews, 1987, 67, 618-724). […] CIC-1 inhibition would in such recordings be reflected by a reduction of Gm.
Experimentally, Gm was measured in individual fibres of whole rat soleus muscles using a three micro-electrodes technique described in this example and in full detail elsewhere (Riisager et al., Determination of cable parameters in skeletal muscle fibres during repetitive firing of action potentials. Journal of Physiology, 2014, 592, 4417-4429). Briefly, intact rat soleus muscles were dissected out from 12-14 week old Wistar rats and placed in an experimental chamber that was perfused with a standard Krebs Ringer solution containing 122 mM NaCl, 25 mM NaHCO3, 2.8 mM KCl, 1.2 mM KH2PO4, 1.2 mM MgSO4, 1.3 mM CaCl2, 5.0 mM D-glucose. During experiments, the solution was kept at approx. 30° C. and continuously equilibrated with a mixture of 95% O2 and 5% CO2, pH˜7.4. The experimental chamber was placed in Nikon upright microscope that was used to visualize individual muscle fibres and the three electrodes (glass pipettes filled with 2 M potassium citrate). For Gm measurements, the electrodes were inserted into the same fibre with known inter-electrode distances of 0.35-0.5 mm (V1-V2, X1) and 1.1-1.5 mm (V1-V3, X3) (FIG. 1A). The membrane potential of the impaled muscle fibre was recorded by all electrodes. Two of the electrodes were furthermore used to inject 50 ms current pulses of −30 nA. […] The steady state voltage deflection at each distance was divided by the magnitude of current injected (−30 nA) and the resulting transfer resistances were plotted against inter-electrode distance and the data was fitted to a mono-exponential function from which Gm could be calculated using linear cable theory (FIG. 1B).
To establish a dose response relationship, Gm was first determined in 10 muscle fibres in the absence of compound and then at four increasing compound concentrations with Gm determinations in 5-10 fibres at each concentration. The average Gm values at each concentration were plotted against compound concentration and the data was fitted to sigmoidal function to obtain an EC50 value (FIG. 1C).

Experiment [1] has as its system isolated rat soleus muscles. The experiment in a line: Measurement of force in an in vitro model: isolated rat soleus nerve-muscle preparation with tubocurarine. The conditions noted are these: Rattus norvegicus, 40 min; 50 μM test compound, after 40 mins of compound exposure; 115 nM tubocurarine for 90 mins; read-out: Point increase (%) of initial force that was restored. Here is the method: FIG. 2. […] Force traces from a representative muscle stimulated to contract in 1) control condition before addition of neuromuscular blocking agent, 2) the force response to stimulation after 90 minutes incubation with Tubocurarine. […] The traces presented in panel A (1, 2, 3), correspond to the dotted lines in panel B, respectively.
Recovery of force is quantified as the percentage of the force prior to tubocurarine that is recovered by the compound.
The current disclosure relates to compounds that inhibit CIC-1 ion channels and increase muscle excitability and thereby improve muscle function in clinical conditions where muscle activation is failing. Such conditions result in loss of contractile function of skeletal muscle, weakness and excessive fatigue. In this series of experiments the compounds were tested for their ability to restore contractile function of isolated rat muscle when the neuromuscular transmission had been compromised akin to neuromuscular disorders.
Experimentally, soleus muscles from 4-5 week old rats were isolated with the motor nerve remaining attached. The nerve-muscle preparations were mounted in experimental setups that enabled electrical stimulation of the motor nerve. Stimulation of the motor nerve led to activation of the muscle fibres and ensuing force production that was recorded. The nerve-muscle preparations were also in these experiments incubated in the standard Krebs Ringer (see example 5) and the solution was heated to 30° C. and continuously equilibrated with a mixture of 95% O2 and 5% CO2, pH˜7.4.
After mounting the nerve-muscle preparation in the experimental setup, the contractile function of the muscle was initially assessed under the control conditions (FIG. 2A). […] The experimental condition mimics the failing neuromuscular transmission in a range of neuromuscular disorders. After addition of tubocurarine the contractile force declined over the next 90 mins to 10-50% of the control force. 50 μM of the test compound was then added and the contractile force recovered despite the continued presence of tubocurarine. To quantify the ability of the compound to restore force the percentage of the initial force that was restored was determined after 40 mins of compound exposure (FIG. 2B) and the point increase is reported in Table 3.

The target in the next experiment is T2, human CIC-1 channels (Homo sapiens, UniProt P35523).
T2 construct: host or cells: CHO (Chinese hamster ovary) cells, cryopreserved, used directly after thawing
As to the kind of experiment: Automated patch-clamp on the human isoform of CIC-1 expressed in CHO cells. To be noted: compound added to the intracellular solution vs control cell patches, positive shift reflects inhibition. On the procedure: The investigatory goal of these experiments was to evaluate how compounds affect the open probability and current amplitude of human CIC-1 channels expressed in CHO cells. Experiments were performed using an automated patch clamp system that allowed high throughput testing of whole cell patches together with both intracellular and extracellular addition of compound.
Automated whole cell patch clamp experiments were performed with the Qpatch 16 system (Sophion Bioscience, Ballerup, Denmark) at room temperature. Data acquisition and analysis were performed in the Qassay software (ver. 5.6, Odense).
To obtain tail currents, the membrane potential was stepped to −100 mV after each test voltage for 300 ms and then relaxed to −30 mV for 2 sec between sweeps (FIG. 3). I/V relationships for whole cell instant and steady state current amplitudes were obtained by plotting average current densities at the beginning and at the end of the 300 ms step against the membrane potential (FIG. 4).
In order to determine the relative overall open probability (Po), the instantaneous tail currents were normalized to the maximal tail current obtained following the most positive voltage step and plotted against the test voltage. Plots of normalized tail currents from each whole cell patch were then fitted to a Boltzmann function allowing determination of half activation voltages (V1/2, FIG. 5).
Osmolality adjusted to ˜320 using sucrose. Intracellular solutions contained: 80 mM CsF, 60 mM CsCl, 5/1 mM KOH/EGTA, 10 mM HEPES, 10 mM NaCl, pH adjusted to 7.2 with NaOH (2 M). Osmolality adjusted to ˜320 mOsm using sucrose.
Cells used in patch clamp experiments were Chinese hamster ovary cells (CHO) constitutively expressing human CIC-1 channels. The amino acid sequence encoded by the cDNA used to create this cell line was identical to the translated sequence for GenBank accession number NM_000083.2. Cells were produced by Charles River (Catalogue CT6175, Cleveland Ohio, USA) in a cryopreserved format. Experiments were performed on the cells directly after thawing (3×10^6 cells used in each experiment).
To evaluate the compound effect on CIC-1, when applied directly to the intracellular side of the cell membrane, the half activation voltage, V1/2, was determined from whole cell patches with compound added to the intracellular solution and then compared to V1/2 determined from control cell patches with only vehicle added to the intracellular solution. Additionally, the effect of extracellular added compound was evaluated by determine V1/2 and steady state current amplitudes before and after exchanging the extracellular solution to contain compound.
The difference in half activation voltage of CIC-1 channels, ΔV1/2, was determined as the difference between the cell patches treated intracellularly with compound and control cells patches and is reported in Table 4 below. A positive shift in ΔV1/2 is reflecting CIC-1 channel inhibition by the tested compound. P-values of <0.05 is considered significant.

Each structure is given as a SMILES string.

T2 sequence (P35523 whole entry): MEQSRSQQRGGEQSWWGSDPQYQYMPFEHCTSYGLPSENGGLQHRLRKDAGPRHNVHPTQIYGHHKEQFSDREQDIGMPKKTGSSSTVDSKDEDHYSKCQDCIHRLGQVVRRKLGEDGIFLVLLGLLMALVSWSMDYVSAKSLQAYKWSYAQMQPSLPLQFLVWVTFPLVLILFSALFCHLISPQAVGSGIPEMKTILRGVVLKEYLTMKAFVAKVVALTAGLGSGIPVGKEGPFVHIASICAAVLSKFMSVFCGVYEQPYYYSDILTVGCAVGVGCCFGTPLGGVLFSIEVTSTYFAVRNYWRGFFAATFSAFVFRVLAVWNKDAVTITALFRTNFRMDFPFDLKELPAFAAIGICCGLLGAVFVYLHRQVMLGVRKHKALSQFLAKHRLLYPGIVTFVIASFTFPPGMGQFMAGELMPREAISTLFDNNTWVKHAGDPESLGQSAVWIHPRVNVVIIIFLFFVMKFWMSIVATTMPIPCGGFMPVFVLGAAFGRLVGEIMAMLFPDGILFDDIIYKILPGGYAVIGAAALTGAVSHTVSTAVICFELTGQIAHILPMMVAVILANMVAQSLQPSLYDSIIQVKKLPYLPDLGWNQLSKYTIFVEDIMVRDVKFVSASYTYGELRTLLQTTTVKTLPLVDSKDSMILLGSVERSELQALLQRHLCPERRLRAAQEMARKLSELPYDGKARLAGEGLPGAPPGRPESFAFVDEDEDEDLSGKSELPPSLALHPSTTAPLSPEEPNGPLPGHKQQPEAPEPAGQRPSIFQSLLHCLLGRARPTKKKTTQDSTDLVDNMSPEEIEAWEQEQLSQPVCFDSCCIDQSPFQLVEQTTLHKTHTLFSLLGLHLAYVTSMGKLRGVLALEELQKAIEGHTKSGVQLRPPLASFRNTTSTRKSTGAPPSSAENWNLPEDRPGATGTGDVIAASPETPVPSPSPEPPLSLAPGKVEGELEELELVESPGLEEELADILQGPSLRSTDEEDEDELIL

In general, EC50 refers to the concentration giving half of the maximal effect. With `C[C@H](Oc1ccc(Cl)cc1)C(=O)NOCC1CCC1` [Compound C-75, (2S)-2-(4-chlorophenoxy)-N-(cyclobutylmethoxy)propanamide], the 50% effective concentration (EC50) at CIC-1 ion channel came to 2 µM. In addition, in experiment [1], the activation at 50 µM amounted to 36%.

On to `CONC(=O)[C@H](C)Oc1ccc(Br)cc1F` [Compound C-64, (2S)-2-(4-bromo-2-fluorophenoxy)-N-methoxypropanamide], for which the EC50 on CIC-1 ion channel came to 3.1 µM. Further, in experiment [1], the activation at 50 µM is 24%. The like results for `CONC(=O)[C@H](C)Oc1ccc(Cl)cc1` [Compound C-85, (2S)-2-(4-chlorophenoxy)-N-methoxypropanamide] were, in that order, 10.1 µM and 45%. The like results for `COC(=O)CONC(=O)[C@H](C)Oc1ccc(Cl)cc1` [Compound C-78, methyl 2-{[(2S)-2-(4-chlorophenoxy)propanamido]oxy}acetate] were, in that order, 3.1 µM and 41%. As to `C[C@H](Oc1ccc(Br)cc1Br)C(=O)NC#N` [Compound B-2, (2S)-N-cyano-2-(2,4-dibromophenoxy)propanamide], on human CIC-1 channels, the “ΔV1/2 (difference in half activation voltage of CIC-1 channels)” value worked out at 6.2 mV.

Take `CC(=O)NCCON(C(C)=O)C(=O)[C@H](C)Oc1ccc(Cl)cc1` [Compound C-22, (2S)-N-acetyl-2-(4-chlorophenoxy)-N-(2-acetamidoethoxy)propanamide]: the EC50 at CIC-1 ion channel was 7.8 µM. The activation at 50 µM in experiment [1] worked out at 22%. Turning to `CC[C@H](Oc1ccc(Br)cc1)c1nn[nH]n1` [Compound E-5, 5-[(1S)-1-(4-bromophenoxy)propyl]-2H-1,2,3,4-tetrazole], the “ΔV1/2 (difference in half activation voltage of CIC-1 channels)” value at human CIC-1 channels was found to be 13.9 mV. With `C[C@H](Oc1ccc(Cl)cc1)C(=O)NOCC1CC1` [Compound C-74, (2S)-2-(4-chlorophenoxy)-N-(cyclopropylmethoxy)propanamide], at CIC-1 ion channel, the EC50 stood at 3.4 µM. The activation at 50 µM in experiment [1] amounted to 22%. For the compound `CC(=O)N1CCC(ONC(=O)[C@H](C)Oc2ccc(Br)cc2)C1` (stereo partly drawn) [Compound C-8], the activation at 50 µM in experiment [1] worked out at 45%. Also, the “ΔV1/2 (difference in half activation voltage of CIC-1 channels)” value on human CIC-1 channels is 10.3 mV. `CC(C)[C@H](Oc1ccc(Br)cc1)C(=O)NC#N` [Compound B-5, (2S)-2-(4-bromophenoxy)-N-cyano-3-methylbutanamide]: the concentration giving a half-maximal response (EC50) at CIC-1 ion channel came out at 19.6 µM. Also, the “ΔV1/2 (difference in half activation voltage of CIC-1 channels)” value on human CIC-1 channels is recorded as 26.6 mV.

In the case of `C[C@H](Oc1ccc(Cl)cc1)C(=O)NC#N` [Compound B-4, (2S)-2-(4-chlorophenoxy)-N-cyanopropanamide], the “ΔV1/2 (difference in half activation voltage of CIC-1 channels)” value on human CIC-1 channels is listed as 21.2 mV. In the case of `CCONC(=O)[C@H](C)Oc1ccc(Cl)cc1` [Compound C-82, (2S)-2-(4-chlorophenoxy)-N-ethoxypropanamide], on CIC-1 ion channel, the EC50 turned out to be 9.7 µM. Still for that read-out and setting: the same measure for `C[C@H](Oc1ccc(Cl)cc1)c1nnn[nH]1` [Compound E-15, 5-[(1S)-1-(4-chlorophenoxy)ethyl]-1H-1,2,3,4-tetrazole]: 19.9 µM.
